In ChEMBL document CHEMBL3638678, “4-substituted-cyclohexylamino-4-piperidinyl-acetamide antagonists of CCR2” (2014):

Molecular target: C-C chemokine receptor type 2 (Homo sapiens, UniProt P41597)
Assay: Binding Assay: MCP-1 Receptor Binding Assay in THP-1 Cells Human monocytic cell line THP-1 cells were obtained from American Type Culture Collection (Manassas, Va., USA). The THP-1 cells were grown in RPMI-1640 (RPMI: Roswell Park Memorial Institute Medium-cell culture growth media) supplemented with 10% fetal bovine serum in a humidified 5% CO2 atmosphere at 37 C. The cell density was maintained between 0.5x10^6 cells/mL.THP-1 (cells were incubated with 0.5 nM 125I labeled MCP-1 (Perkin-Elmer Life Sciences, Inc. Boston, Mass.) in the presence of varying concentrations of either unlabeled MCP-1 (R & D Systems, Minneapolis, Minn.) or test compound for 2 hours at 30 C. in a 96 well plate. Cells were then harvested onto a filter plate, dried, and 20 uL of Microscint 20 was added to each well. Plates were counted in a TopCount NXT, Microplate Scintillation & Luminescence Counter (Perkin-Elmer Life Sciences, Inc. Boston, Mass.).
Type: cell-based

C-C chemokine receptor type 2, sequence (P41597 whole entry): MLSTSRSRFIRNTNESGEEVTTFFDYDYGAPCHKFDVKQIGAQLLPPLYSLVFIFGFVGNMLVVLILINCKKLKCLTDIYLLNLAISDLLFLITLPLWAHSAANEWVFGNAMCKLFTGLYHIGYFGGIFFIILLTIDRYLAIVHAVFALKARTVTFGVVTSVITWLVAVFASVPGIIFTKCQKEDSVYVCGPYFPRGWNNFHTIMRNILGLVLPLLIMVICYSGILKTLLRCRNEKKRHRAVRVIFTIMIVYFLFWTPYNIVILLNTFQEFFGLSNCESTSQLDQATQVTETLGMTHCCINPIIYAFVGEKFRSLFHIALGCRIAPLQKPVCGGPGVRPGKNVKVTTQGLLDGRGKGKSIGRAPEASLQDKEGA

- IC50: 1100 nM
SMILES: CC1(C)Cc2cc(/C=C/C(=O)N3CCC(C(NC4CCC(c5c[nH]c6ccccc56)CC4)C(N)=O)CC3)ccc2O1 (stereo unspecified)
